Source: paper PMC9415894, “Development of Cross-Reactive Antibodies for the Identification and Treatment of Synthetic Cannabinoid Receptor Agonist Toxicity” (Vaccines, 2022)

What was measured:
Assay type in all cases: binding, mice
[1] = tested on: antibodies generated from vaccination with hapten 1; experiment: Competitive ELISA, day 35 pooled sera of hapten 1 vaccine group; conditions: for % Inhibition, HAPTEN 1: SCRA at 10 μM; for % Inhibition, HAPTEN 1 / IC50: day 35 pooled sera; for IC50: 11 concentrations; for reactivity of hapten 1 antibodies (in words): day 35 sera
Procedure: (§1) Vaccination: Vaccine formulation consisted of our bioconjugates at 1 mg/mL (100 μg/mouse), Alum (50 μg/mouse) and a 1 mg/mL CpG ODN 1826 (50 μg/mouse) in 1X PBS solution. Vaccines were shaken at 4 °C for 45 min prior to animal use. Mock vaccines consisted of the same components with the bioconjugate replaced with native KLH. All animals were vaccinated on day zero and received two boosts, one on day 14 and one on day 28. Sera was collected from each animal on days 21 and 35 via retroorbital blood draws.
(§2) Antibody Titers: Costar® 96-well plates were coated with 25 μL of a 5 μg/mL solution of hapten-BSA conjugate and incubated overnight at 37 °C. Plates were then methanol fixed and non-specific protein binding was blocked with 5% Blotto for 30 min. Pooled sera from either day 21 (1:100 in 5% blotto) or 35 (1:400) were added and serially diluted across the plate before incubating at 37 °C for 60 min. Plates were then washed with 1X PBS prior to the addition of secondary antibody conjugated to horse-radish peroxidase, which incubated at 37 °C for 30 min. Equal parts tetramethylbenzidine and hydrogen peroxide (50 μL) were added to each well and reacted for 15 min before being quenched with 50 μL of 2M sulfuric acid. Optical densities were determined at 450 nm using MiniMax 300 plate reader (Molecular Devices). Lastly, midpoint titers were calculated from the % optical density versus log(dilution) using the log(inhibition) vs response variable slope equation on GraphPad Prism v9 (San Diego, CA, USA).
(§3) Competitive ELISA: Costar® 96-well plates were coated as described in the antibody titer section. After the plates are blocked, 25 μL of a 1:titer solution of each BSA-hapten conjugate is added to every well. Equal volume of a 40 μM solution of each SCRA is then added to column one, and 1:2 serially diluted concentrations added across the wells. Optical densities were determined as in titer experiments, and percent inhibitions were evaluated with GraphPad Prism 9 as in titer experiments.

[2] = tested on: antibodies generated from vaccination with hapten 2; experiment: Competitive ELISA, day 35 pooled sera of hapten 2 vaccine group; conditions: for % Inhibition, HAPTEN 2: SCRA at 10 μM, day 35 pooled sera
Procedure: as §1, §2, §3

[3] = tested on: antibodies generated following vaccination with hapten 4; experiment: Competitive ELISA, day 35 pooled sera of hapten 4 vaccine group; conditions: for % Inhibition, HAPTEN 4: SCRA at 10 μM; for % Inhibition, HAPTEN 4 / IC50: day 35 pooled sera; for IC50: 11 concentrations; for binding by hapten 4 antibodies (in words): day 35 sera
Procedure: as §1, §2, §3

[4] = tested on: antibodies generated following vaccination with hapten 3; experiment: Competitive ELISA, day 35 pooled sera of hapten 3 vaccine group; conditions: for % Inhibition, HAPTEN 3: SCRA at 10 μM; for % Inhibition, HAPTEN 3 / IC50: day 35 pooled sera; for IC50: 11 concentrations; for binding by hapten 3 antibodies (in words): day 35 sera
Procedure: as §1, §2, §3

Structure (SMILES)	% Inhibition, HAPTEN 1 [1]	IC50 [1]	reactivity of hapten 1 antibodies (in words) [1]	% Inhibition, HAPTEN 2 [2]	% Inhibition, HAPTEN 4 [3]	% Inhibition, HAPTEN 3 [4]	IC50 for hapten 1 relative to compound 1 ([1]; compared with IC50 against compound 1)	IC50 [3]	binding by hapten 4 antibodies (in words) [3]	IC50 [4]	binding by hapten 3 antibodies (in words) [4]	reactivity of hapten 2 antibodies (in words) ([2]; day 35 sera)
CCCCCn1cc(C(=O)c2cccc3ccccc23)c2ccccc21 [Compound 1, JWH-018]	60.0%	5540 nM	micromolar	17.7%	10.9%	14.6%	–	–	–	–	–	–
O=C(c1cccc2ccccc12)c1cn(CCCCCF)c2ccccc12 [Compound 2, AM-2201]	79.3%	1140 nM	micromolar	29.5%	14.4%	18.0%	approximately five times lower	–	–	–	–	–
CCCCCn1cc(C(=O)NC(C(=O)OC)C(C)C)c2ccccc21 (centres unmarked) [Compound 3, MMB-PICA]	0.0%	–	–	15.2%	71.0%	91.8%	–	1260 nM	bind	38 nM	micromolar to sub-micromolar	–
COC(=O)C(NC(=O)c1cn(CCCCCF)c2ccccc12)C(C)C (centres unmarked) [Compound 4]	8.8%	–	–	19.9%	54.3%	69.0%	–	6690 nM	bind	744 nM	micromolar to sub-micromolar	–
CCCCCn1nc(C(=O)NC(C(=O)OC)C(C)C)c2ccccc21 (centres unmarked) [Compound 5, MMB-PINACA]	6.9%	–	–	25.5%	85.5%	82.6%	–	334 nM	bind	269 nM	micromolar to sub-micromolar	–
COC(=O)C(NC(=O)c1nn(CCCCCF)c2ccccc12)C(C)C (centres unmarked) [Compound 6, 5F-AMB]	16.8%	–	–	28.7%	63.9%	57.4%	–	2660 nM	bind	3320 nM	micromolar to sub-micromolar	–
COC(=O)C(NC(=O)c1nn(Cc2ccc(F)cc2)c2ccccc12)C(C)C (centres unmarked) [Compound 7, AMB-FUBINACA]	11.1%	–	–	30.7%	77.7%	76.0%	–	966 nM	sub-micromolar	299 nM	sub-micromolar	–
CCCCCn1cc(C(=O)Oc2cccc3ccccc23)c2ccccc21 [Compound 8, NAPIC]	13.6%	–	no reactivity	31.5%	11.0%	19.2%	–	–	–	–	–	little to no reactivity
